Reference: PubChem BioAssay AID256 (DTP/NCI, 2004)
“And” between values parts separate entries of the source, which are not always exact repeats. Identical values can stand only once. Inconclusive results and toxic doses are left out. Rule for the calls: active = survival T/C of 150% or more; inactive = T/C below 125% in these data.

System: CD2F1 mice, L1210 leukemia ip, survival T/C
Assay: NCI In Vivo Anticancer Drug Screen. Data for tumor model L1210 Leukemia (intraperitoneal) in CD2F1 (CDF1) mice
Details: higher = longer survival
Summary of the method: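 Antitumor effect is scored in animals hosting a serially transplanted tumor. Values compare compound-dosed animals against vehicle-only controls as a simple quotient.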

[1] = endpoint: mean survival time, dose: 100.0 mg/kg/injection, schedule: Q01DX009 (ip), vehicle: saline with Tween-80
[2] = endpoint: mean survival time, dose: 100.0 mg/kg/injection, schedule: Q04DX003 (ip), vehicle: saline with Tween-80
[3] = endpoint: mean survival time, dose: 200.0 mg/kg/injection, schedule: Q01DX009 (ip), vehicle: saline with Tween-80
[4] = endpoint: mean survival time, dose: 200.0 mg/kg/injection, schedule: Q04DX003 (ip), vehicle: saline with Tween-80
[5] = endpoint: mean survival time, dose: 400.0 mg/kg/injection, schedule: Q01DX009 (ip), vehicle: saline with Tween-80
[6] = endpoint: mean survival time, dose: 400.0 mg/kg/injection, schedule: Q04DX003 (ip), vehicle: saline with Tween-80

Measured: T/C

CN(N=O)C(=O)N[C@@H](C=O)[C@@H](O)[C@H](O)[C@H](O)CO
inactive: endpoint: mean survival time, dose: 12.5 mg/kg/injection, schedule: Q01DX005 (ip), vehicle: other 104 % of control | endpoint: mean survival time, dose: 19.6 mg/kg/injection, schedule: Q01DX009 (ip), vehicle: other 104 % of control | endpoint: mean survival time, dose: 25.0 mg/kg/injection, schedule: Q01DX001 (ip), vehicle: other 102 % of control and 103 % of control | endpoint: mean survival time, dose: 25.0 mg/kg/injection, schedule: Q01DX005 (ip), vehicle: other 112 % of control | endpoint: mean survival time, dose: 25.0 mg/kg/injection, schedule: Q04DX003 (ip), vehicle: other 102 % of control | endpoint: mean survival time, dose: 29.3 mg/kg/injection, schedule: Q01DX009 (ip), vehicle: other 107 % of control | endpoint: mean survival time, dose: 32.0 mg/kg/injection, schedule: Q03HX008 (ip), vehicle: other 98 % of control | endpoint: mean survival time, dose: 32.0 mg/kg/injection, schedule: Q03HX016 (ip), vehicle: other 98 % of control | endpoint: mean survival time, dose: 37.5 mg/kg/injection, schedule: Q01DX001 (ip), vehicle: other 107 % of control | endpoint: mean survival time, dose: 44.0 mg/kg/injection, schedule: Q01DX009 (ip), vehicle: other 117 % of control | endpoint: mean survival time, dose: 50.0 mg/kg/injection, schedule: Q01DX001 (ip), vehicle: other 94 % of control and 105 % of control | endpoint: mean survival time, dose: 50.0 mg/kg/injection, schedule: Q01DX005 (ip), vehicle: other 117 % of control | endpoint: mean survival time, dose: 50.0 mg/kg/injection, schedule: Q04DX003 (ip), vehicle: other 106 % of control | endpoint: mean survival time, dose: 64.0 mg/kg/injection, schedule: Q03HX008 (ip), vehicle: other 96 % of control | endpoint: mean survival time, dose: 64.0 mg/kg/injection, schedule: Q03HX016 (ip), vehicle: other 95 % of control | endpoint: mean survival time, dose: 75.0 mg/kg/injection, schedule: Q01DX001 (ip), vehicle: other 98 % of control | endpoint: mean survival time, dose: 100.0 mg/kg/injection, schedule: Q01DX001 (ip), vehicle: other 113 % of control and 103 % of control | endpoint: mean survival time, dose: 100.0 mg/kg/injection, schedule: Q01DX005 (ip), vehicle: other 116 % of control | endpoint: mean survival time, dose: 100.0 mg/kg/injection, schedule: Q01DX009 (ip), vehicle: saline 111 % of control | endpoint: mean survival time, dose: 100.0 mg/kg/injection, schedule: Q04DX003 (ip), vehicle: other 109 % of control | endpoint: mean survival time, dose: 128.0 mg/kg/injection, schedule: Q03HX008 (ip), vehicle: other 102 % of control | endpoint: mean survival time, dose: 128.0 mg/kg/injection, schedule: Q03HX016 (ip), vehicle: other 108 % of control | endpoint: mean survival time, dose: 150.0 mg/kg/injection, schedule: Q01DX001 (ip), vehicle: other 104 % of control | endpoint: mean survival time, dose: 200.0 mg/kg/injection, schedule: Q01DX001 (ip), vehicle: other 118 % of control and 124 % of control and 106 % of control | endpoint: mean survival time, dose: 200.0 mg/kg/injection, schedule: Q01DX009 (ip), vehicle: saline 103 % of control | endpoint: mean survival time, dose: 200.0 mg/kg/injection, schedule: Q04DX003 (ip), vehicle: other 120 % of control | endpoint: mean survival time, dose: 250.0 mg/kg/injection, schedule: Q01DX001 (ip), vehicle: other 109 % of control | endpoint: mean survival time, dose: 256.0 mg/kg/injection, schedule: Q03HX008 (ip), vehicle: other 108 % of control | endpoint: mean survival time, dose: 256.0 mg/kg/injection, schedule: Q03HX016 (ip), vehicle: other 113 % of control | endpoint: mean survival time, dose: 300.0 mg/kg/injection, schedule: Q01DX001 (ip), vehicle: other 119 % of control and 110 % of control | endpoint: mean survival time, dose: 350.0 mg/kg/injection, schedule: Q01DX001 (ip), vehicle: other 113 % of control | endpoint: mean survival time, dose: 400.0 mg/kg/injection, schedule: Q01DX001 (ip), vehicle: other 117 % of control and 102 % of control | endpoint: median survival time, dose: 21.6 mg/kg/injection, schedule: Q01DX009 (ip), vehicle: saline 100 % of control | endpoint: median survival time, dose: 36.0 mg/kg/injection, schedule: Q01DX009 (ip), vehicle: saline 102 % of control | endpoint: median survival time, dose: 60.0 mg/kg/injection, schedule: Q01DX009 (ip), vehicle: saline 109 % of control | endpoint: median survival time, dose: 100.0 mg/kg/injection, schedule: Q01DX009 (ip), vehicle: saline 110 % of control

CCOc1ccc(NC(=O)C2CCC(C)(C(=O)O)C2(C)C)cc1 (centres undefined)
inactive: endpoint: mean survival time, dose: 25.0 mg/kg/injection, schedule: Q01DX009 (ip), vehicle: saline with Tween-80 102 % of control | endpoint: mean survival time, dose: 25.0 mg/kg/injection, schedule: Q04DX003 (ip), vehicle: saline with Tween-80 98 % of control | endpoint: mean survival time, dose: 50.0 mg/kg/injection, schedule: Q01DX009 (ip), vehicle: saline with Tween-80 98 % of control | endpoint: mean survival time, dose: 50.0 mg/kg/injection, schedule: Q04DX003 (ip), vehicle: saline with Tween-80 100 % of control | [1] 95 % of control | [2] 96 % of control and 98 % of control

CC(SC(C)c1ccccc1)c1ccccc1 (centres undefined)
inactive: [1] 98 % of control | [2] 90 % of control | [3] 98 % of control | [4] 93 % of control | [5] 102 % of control | [6] 90 % of control

C=CCCCCC(=O)c1ccccc1
inactive: endpoint: mean survival time, dose: 50.0 mg/kg/injection, schedule: Q04DX002 (ip), vehicle: saline with Tween-80 100 % of control | endpoint: mean survival time, dose: 100.0 mg/kg/injection, schedule: Q04DX002 (ip), vehicle: saline with Tween-80 93 % of control | endpoint: mean survival time, dose: 200.0 mg/kg/injection, schedule: Q04DX002 (ip), vehicle: saline with Tween-80 104 % of control

CC(O)(c1ccccc1)c1ccccc1
inactive: [1] 104 % of control | [3] 102 % of control | [5] 96 % of control

N/N=C1\CC2C3CC4(OCCO4)C4C3CC2C14 (centres undefined)
inactive: endpoint: mean survival time, dose: 75.0 mg/kg/injection, schedule: Q01DX001 (ip), vehicle: saline 102 % of control | endpoint: mean survival time, dose: 150.0 mg/kg/injection, schedule: Q01DX001 (ip), vehicle: saline 103 % of control

NC(N)=Nc1ccc(C(=O)Oc2ccc([N+](=O)[O-])cc2)cc1
inactive: [1] 112 % of control | [3] 102 % of control

CC(=O)NCC(O)(C1CC1)C1CC1
inactive: endpoint: mean survival time, dose: 100.0 mg/kg/injection, schedule: Q04DX002 (ip), vehicle: saline 102 % of control | endpoint: mean survival time, dose: 200.0 mg/kg/injection, schedule: Q04DX002 (ip), vehicle: saline 98 % of control | endpoint: mean survival time, dose: 400.0 mg/kg/injection, schedule: Q04DX002 (ip), vehicle: saline 94 % of control

Fc1ccc(NC2(c3nnnn3C3CCCCC3)CCN(Cc3ccccc3)CC2)cc1
inactive: endpoint: mean survival time, dose: 100.0 mg/kg/injection, schedule: Q01DX001 (ip), vehicle: saline with Tween-80 95 % of control | endpoint: mean survival time, dose: 200.0 mg/kg/injection, schedule: Q01DX001 (ip), vehicle: saline with Tween-80 102 % of control | endpoint: mean survival time, dose: 400.0 mg/kg/injection, schedule: Q01DX001 (ip), vehicle: saline with Tween-80 101 % of control

O=C(Nc1ccccc1)c1ccccc1C(O)(c1ccccc1)c1ccc(Cl)cc1 (centres undefined)
inactive: [2] 95 % of control | [4] 95 % of control | [6] 97 % of control

CCC(C(=O)O)C(=O)O.[NH-]CC1CCCC[N-]1.[Pt+2]
inactive: endpoint: mean survival time, dose: 3.13 mg/kg/injection, schedule: Q04DX003 (ip), vehicle: saline 98 % of control | endpoint: mean survival time, dose: 25.0 mg/kg/injection, schedule: Q04DX003 (ip), vehicle: saline 115 % of control | endpoint: mean survival time, dose: 50.0 mg/kg/injection, schedule: Q04DX003 (ip), vehicle: saline 124 % of control | endpoint: median survival time, dose: 200.0 mg/kg/injection, schedule: Q04DX003 (ip), vehicle: distilled water + Tween-80 103 % of control

O=C(O)C1CCC(=O)N1C(=O)OCc1ccccc1 (centres undefined)
inactive: [1] 95 % of control | [3] 92 % of control | [5] 90 % of control

CC(=O)OCC1OC(OC(C)=O)C(NC(=O)N(CCSCCCl)N=O)C(OC(C)=O)C1OC(C)=O (centres undefined)
inactive: endpoint: mean survival time, dose: 0.78 mg/kg/injection, schedule: Q01DX001 (ip), vehicle: water 96 % of control | endpoint: mean survival time, dose: 1.56 mg/kg/injection, schedule: Q01DX001 (ip), vehicle: water 102 % of control | endpoint: mean survival time, dose: 3.12 mg/kg/injection, schedule: Q01DX001 (ip), vehicle: water 106 % of control | endpoint: mean survival time, dose: 6.25 mg/kg/injection, schedule: Q01DX001 (ip), vehicle: distilled water + Tween-80 106 % of control | endpoint: mean survival time, dose: 6.25 mg/kg/injection, schedule: Q01DX001 (ip), vehicle: water 106 % of control
